Reference: patent publication US7138122B2, “Therapeutic systems” (Enzacta R & D Limited, priority 1997, dated 2006)
Entries after “also recorded” stand apart in the source; their conditions may differ.

Assays:
[1] = target: T1, NQO2 (Homo sapiens, UniProt P16083); test: Co-substrate activity with NQO2 for reduction of CB 1954 (HPLC); assay type: biochemical; parameters: restriction site were added to the 5′ and 3′-ends of the full-length NQO2 cDNA; made in house; host or cells: E. coli (expression vector pKK233-2, plasmid pKK-hNQO2); conditions: for ability to act as co-substrate for NQO2: reduction of CB 1954 by NQO2; for Km: of NQO2 for the co-substrate, CB1954 as electron acceptor (100 μM); for kcat: of NQO2 with the co-substrate, CB1954 as electron acceptor; for RELATIVE RATE OF REDUCTION: CB 1954 reduction by NQO2, co-substrate initial 500 μM, CB 1954 initial 100 μM
T1 sequence (P16083 1-231): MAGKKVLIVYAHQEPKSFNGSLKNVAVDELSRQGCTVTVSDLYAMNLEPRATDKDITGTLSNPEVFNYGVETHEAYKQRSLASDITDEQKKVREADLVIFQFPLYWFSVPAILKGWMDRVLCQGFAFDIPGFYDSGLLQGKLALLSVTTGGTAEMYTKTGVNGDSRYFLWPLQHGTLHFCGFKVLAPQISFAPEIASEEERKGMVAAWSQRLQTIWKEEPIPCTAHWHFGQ
Protocol: The effect of various co-substrates on CB 1954 was determined as above but NADH. NADPH or NMNH was substituted for the NRH and CB 1954 was used at a fixed concentration of 100 μM. The enzyme concentration was 5 μg/ml. The reduction of CB 1954 was monitored by measuring both the decrease in its corresponding peak area on the HPLC trace and the increase in the area of the peak corresponding to the reduction product 5-(aziridin-1-yl)-4-hydroxylamino-2-nitrobenzamide. The relative rates of reduction were determined at 10% reduction of CB1954 from a graph plotting CB 1954 reduction against time. The time axis was normalised to the equivalent of 10 μg/ml of NQO2.
The activity of various potential co-substrates was determined by HPLC analysis in the presence of CB1954 and NQO2. To determine the kinetic parameters NQO2 (1 μg/ml) was incubated with NRH (5000 μM) and CB1954 at different concentrations (0.1 to 2 mM) in sodium phosphate buffer (10MM, pH 7) at 37° C. At various times, aliquots (10 μl) were injected onto a Partisphere SCX (250×4.5 mm) HPLC column (Whatman Ltd) and eluted isocratically (1.5 ml/min) with 50 mM aqueous sodium phosphate containing 1% methanol. The eluate was continuously monitored for absorption at 320 nm. […] The reduction of CB1954 was monitored by quantifying the increase in the area of the peak corresponding to the reduction product 5-(aziridin-1-yl)-4-hydroxylamino-2-nitrobenzamide. All the assays were initiated by addition of the enzyme and performed in duplicate. The kinetic parameters were calculated by plotting the initial rate of reduction at each concentration of CB1954 against that concentration and fitting the data to the Michaelis-Menton equation using a computer programme (Fig P). Values were confirmed by transforming the data and fitting it to various linear forms of the equation by regression analysis.
The effect of various co-substrates on CB1954 reduction was determined as above but the co-substrate was substituted for the NRH and C1954 was used at a fixed concentration of 100 μM. The enzyme concentration was 1 or 5 μg/ml. The reduction of CB1954 was monitored by measuring both the decrease in its corresponding peak area on the HPLC trace and the increase in the area of the peak corresponding to the reduction product 5-(aziridin-1-yl)-4-hydroxylamino-2-nitrobenzamide. The relative rates of reduction were determined at 10% reduction of CB1954 from a graph plotting CB1954 reduction against time. The time axis was normalised to the equivalent of 10 μg/ml of NQO2. The kinetic parameters of NQO2 for the various co-substrates was determined as for CB1954 except that the initial concentration of CB1954 was constant at 100 μm whilst that of the co-substrate was varied from 0 to 2 mM. The enzyme concentration was 0.5 μg/ml.

[2] = target: E. coli nitroreductase (Escherichia coli, UniProt P38489); test: Use of co-substrates by E. coli nitroreductase for reduction of CB1954; assay type: biochemical
E. coli nitroreductase, sequence (P38489 whole entry): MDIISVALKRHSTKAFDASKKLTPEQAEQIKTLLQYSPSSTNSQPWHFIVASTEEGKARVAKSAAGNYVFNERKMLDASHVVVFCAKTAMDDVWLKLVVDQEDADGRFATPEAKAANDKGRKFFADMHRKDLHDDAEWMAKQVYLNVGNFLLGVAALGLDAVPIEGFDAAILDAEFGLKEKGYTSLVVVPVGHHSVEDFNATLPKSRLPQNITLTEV

[3] = test system: wild-type V79 cells; test: Uptake of NQO2 co-substrates into V79 cells (fluorimetry); assay type: in vitro ADME, Chinese hamster; conditions: for uptake / internalisation into cells: 1 mM co-substrate, 37° C.
Protocol: The uptake of various NQO2 co-substrates into V79 cells was determined by fluorimetry. V79 cells were seeded into T25 tissue culture flasks and allowed to grow to confluence (^−2×10^7 cells). The growth medium was removed and replaced with 10 mls of fresh medium containing 1 mM of co-substrate and incubated at 37° C. At various the medium was removed and the cell monolayer washed ×5 with 50 mL of ice cold PBS. The cells were removed by trypsinisation and pelleted by centrifugation. The cell pellet was resuspended in alkaline lysis buffer (KOH 0.5M; 36% W/v CsCl; in 50% aqueous ethanol) disrupted by agitation and the cell debris removed by centrifugation at 10,000 g. The concentration of co-substrate was determined by fluorimetry (excitation 360 nm, emission 450 nm, slits 5nm) by diluting 100μl of supernatant in 2.9ml of 100 mM sodium bicarbonate buffer pH 10. The fluorimeter was calibrated against the appropriate standard. All measurements were done in triplicate.

[4] = test system: human T98G gliobastoma cells; test: Cytotoxicity of CB 1954 on T98G glioblastoma cells with NQO2 co-substrates; conditions: 144 hr in presence of CB 1954
Protocol: Cells in exponential phase of growth were trypsinised, seeded in 96 well plates at a density of 5×10^4 cells per well (100 μl) and permitted to recover for 24 hours. Then 50 μl of medium was removed and replaced with 50 μl of fresh medium containing 200 μM NRH to give a final concentration of 100 μM. Serial dilutions of CB 1954 (8 of 3.66×) were performed in situ giving final concentrations of 1000–0.46 μM. Cells were then incubated with drug for 72 hours at 37° C. The plates were fixed and stained with sulforhodamine-B; the absorption at 590 nm read and results were expressed as percentage of control growth. The IC50 values were evaluated by interpolation.
The cells were treated as for V79 cells but were treated for 144 hr in presence of CB 1954.

[5] = target: T2, Rat DT-diaphorase (Rattus norvegicus, UniProt P05982); test: Use of co-substrates by rat DT diaphorase for reduction of CB1954; assay type: biochemical
T2 sequence (P05982 2-274 limits assumed): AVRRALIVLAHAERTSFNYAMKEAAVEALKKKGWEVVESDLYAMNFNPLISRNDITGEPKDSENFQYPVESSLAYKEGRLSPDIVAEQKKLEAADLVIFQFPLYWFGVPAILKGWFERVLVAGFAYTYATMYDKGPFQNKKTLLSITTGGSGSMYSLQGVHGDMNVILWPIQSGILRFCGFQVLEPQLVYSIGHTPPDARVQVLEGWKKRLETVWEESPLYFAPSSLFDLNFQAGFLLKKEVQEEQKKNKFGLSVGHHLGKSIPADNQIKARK

[6] = Effect on the body weight of normal mice (in vivo toxicity); conditions: intravenous (tail vein), 8 day period
Protocol: Mice (6 groups of 3) were injected intravenously (tail vein) with either compound 1 or 2 at the doses shown and the weight of the mice was monitored over an 8 day period. Control mice received vehicle (phosphate buffered saline) only.

[7] = target: T1, NQO2; test: Inhibition of NQO2 by flavones; assay type: biochemical; conditions: competitive with respect to NRH; read-out: K1 (competitive inhibitor with respect to NRH)
[8] = substrate: NC(=O)c1cc(N2CC2)c([N+](=O)[O-])cc1[N+](=O)[O-]; test: Kinetic parameters of NQO2 with respect to CB 1954 (HPLC); assay type: biochemical, human; conditions: other: with respect to CB 1954; NRH as co-substrate; pH 7.0; 37.0 °C
Protocol: Recombinant human NQO2 was prepared in E. coli. A NcoI and a HindIII restriction site were added to the 5′ and 3′-ends of the full-length NQO2 cDNA, respectively, using a PCR method with primers and nucleotide sequences derived from the 5′ and 3′-ends of the cDNA. The PCR product was resolved over a 1% agarose gel and then extracted using the QiAquick Gel Extraction Kit (Qiagen Inc). The gel-purified PCR product was cloned into PCRII vector from the TA cloning kit (Invitrogen Co) and the correct sequence of the PCR product was checked by dideoxy sequencing. The resulting construct was religated into the E. coli expression vector, pKK233-2 (Pharmacia) through the engineered NcoI and HindIII restriction sites. The expression plasmid was designated pKK-hNQO2. […] The purified NQO2 preparation was analysed by SDS-PAGE electrophoresis. The activity of NQO2 in the presence of CB 1954, and various cofactors was determined by HPLC. […] The eluate was continuously monitored for absorption at 320 nm. […] The reduction of CB 1954 was monitored by quantifying the increase in the area of the peak corresponding to the reduction product 5-(aziridin-1-yl)-4-hydroxylamino-2-nitrobenzamide. […] The kinetic parameters were calculated by plotting the initial rate of reduction at each concentration of CB 1954 against that concentration and fitting the data to the Michales-Menton equation using a computer programme (FigP). […]

NC(=O)C1=CN(Cc2ccccc2)C=CC1 [Compound 8, 1-benzyl-dihydronicotinamide]
ability to act as co-substrate for NQO2 [1]: not cosubstrates | ability to act as co-substrate for NQO2 ([1]; listed as compound 8): not co-substrates

O=C(O)C1=CN(C2O[C@H](COP(=O)(O)O)[C@@H](O)[C@H]2O)C=CC1 (some centres unmarked) [nicotinic acid mononucleotide (reduced)]
ability to act as co-substrate for NQO2 [1]: not co-substrates

NC(=O)C1=CN(CCCS(=O)(=O)O)C=CC1 [Compound 1, 1-(3-sulfonatopropyl)-dihydronicotinamide]
ability of E. coli nitroreductase to use as co-substrate [2]: not able to use either | uptake / internalisation into cells [3]: excluded from the cells; also recorded: do not expect it to enter cells and this is what is observed | uptake / internalisation into cells ([3]; listed as compound 1): excluded from cells; also recorded: not able to enter the cells | increase of the cytotoxicity of CB 1954 by added co-substrate [4]: did not potentiate; also recorded: no potentialtion is observed | Km [1]: 1080 ± 135 µM | kcat [1]: 25.5 s⁻¹ | ability of rat DT diaphorase to use as co-substrate [5]: able to use | intrinsic toxicity as judged by body weight loss [6]: no evidence of intrinsic toxicity

NC(=O)C1=CN([C@@H]2O[C@H](COP(=O)(O)OP(=O)(O)OC[C@H]3O[C@@H](n4cnc5c(N)ncnc54)[C@H](OP(=O)(O)O)[C@@H]3O)[C@@H](O)[C@H]2O)C=CC1 [NADPH]
RELATIVE RATE OF REDUCTION [1]: 1.24 | ability to act as co-substrate for NQO2 [1]: not readily catalysed; also recorded: not cosubstrates; also recorded: poor co-substrates

NC(=O)C1=CN([C@@H]2O[C@H](COP(=O)(O)OP(=O)(O)OC[C@H]3O[C@@H](n4cnc5c(N)ncnc54)[C@H](O)[C@@H]3O)[C@@H](O)[C@H]2O)C=CC1 [NADH]
ability of E. coli nitroreductase to use as co-substrate [2]: can use NADH as a co-substrate | RELATIVE RATE OF REDUCTION [1]: 1.0 | ability to act as co-substrate for NQO2 [1]: not readily catalysed; also recorded: not cosubstrates; also recorded: poor co-substrates | ability of rat DT diaphorase to use as co-substrate [5]: can use NADH as a co-substrate

NC(=O)CN1C=CCC(C(N)=O)=C1 [Compound 2, 1-(carboxamidomethyl)-dihydronicotinamide]
ability of E. coli nitroreductase to use as co-substrate [2]: not able to use either | internalisation relative to NRH [3]: about 10 % of NRH | uptake / internalisation into cells [3]: poorly internalised | Km [1]: 198 ± 19 µM | kcat [1]: 12.5 s⁻¹ | ability of rat DT diaphorase to use as co-substrate [5]: able to use | intrinsic toxicity as judged by body weight loss [6]: no evidence of intrinsic toxicity

O=c1c(O)c(-c2ccc(O)c(O)c2)oc2cc(O)cc(O)c12 [Quercetin, 3,5,7,3′,4′-pentahydroxyflavone]
Ki [7]: 27 nM

NC(=O)C1=CN(CCc2ccccc2)C=CC1 [Compound 11]
ability to act as co-substrate for NQO2 [1]: not cosubstrates; also recorded: poor co-substrate

NC(=O)C1=CN([C@@H]2O[C@H](COP(=O)(O)O)[C@@H](O)[C@H]2O)C=CC1 [NMNH]
RELATIVE RATE OF REDUCTION [1]: 5.6

B1: Recombinant human NQO2 (Homo sapiens) (protein)
chain: T1 sequence (P16083 1-231)
notes: restriction site were added to the 5′ and 3′-ends of the full-length NQO2 cDNA; made in house; host or cells: E. coli (expression vector pKK233-2, plasmid pKK-hNQO2)
Km [8]: 263 ± 13 µM | kcat [8]: 6.01 s⁻¹
